{
  "source": "patent US20100279413A1",
  "about": "“APPLICATIONS OF UBIQUINONES AND UBIQUINOLS” (ZYMES, LLC, priority 2008, published 2010)",
  "key": {"[1]": {"tested_on": "cultured fetal rat dorsal root ganglia (DRGs)", "experiment": "In vitro model of ATN: NRTI (d4T/ddI) neurotoxicity in cultured fetal rat DRGs", "assay_type": "cell-based", "method": "Objective: To examine the safety and preventative efficacy of HQO™ using cultured fetal rat dorsal root ganglia (DRGs) as an in vitro model of ATN.\nIn a separate experiment, DRGs were exposed to a higher dose (50 μM) of d4T alone or with 10 or 100 nM HQO™."}, "cultured fetal rat DRGs": {"tested_on": "cultured fetal rat DRGs", "experiment": "CoQ10 / HQO dose response: neurite growth and survival of cultured fetal rat DRGs", "assay_type": "cell-based", "settings": "for mean neurite length: day 16, controls 4.84 mm, p<0.0001", "method": "In fact, by day 11, the length of neurites around DRGs was longer if the DRGs were cultured with CoQ10 (concentrations ranged from 0.1-50 uM) compared with control DRGs, p<0.0001 for all. FIG. 1A, 1B, 1C.\nThe aim of the second experiment was to confirm that exposure to 50 uM CoQ10 is not toxic to cultured fetal rat DRGs and also to see if even higher concentrations may be used safely. Eight DRGs (2 plates of 4 DRGs each) were cultured under each of the following conditions: • Control • 50 uM CoQ10 • 75 uM CoQ10 • 100 uM CoQ10\nThis experiment was carried on for 22 days, which is about as long as DRGs can be sustained in this model, even under control conditions. The experiment was continued for this time period to confirm that CoQ10 remains non-toxic in this model over time.\nNeurite lengths around each DRG were measured at four representative points (giving a total of 32 measures at each exposure concentration at each time point) on days 1, 2, 5, 8, 12, 16 and 22.\nA third experiment measured growth of DRG's with varying doses of HQO™, 0.1, 10, 100 uM CoQ10. This experiment was done in DRG's isolated from a new rat, which accounts for the difference in neurite length compared to experiments 1 and 2. […] (FIG. 1E)"}},
  "data": [
    {"molecule": "CC(=O)O[C@H](CC(=O)[O-])C[N+](C)(C)C", "note": "[LAC, L-acetyl carnitine]", "values": [
      {"measurement": "NRTI (ddI)-induced neurotoxicity of fetal rat DRGs", "setting": "[1]; heading of Example 3, no data given", "result": "Prevents"}
    ]},
    {"molecule": "Cc1cn([C@H]2C=C[C@@H](CO)O2)c(=O)[nH]c1=O", "note": "[d4T, stavudine]", "values": [
      {"measurement": "toxicity in DRGs (NRTI alone)", "setting": "[1]; 50 μM d4T alone, by day 8", "result": "evident"}
    ]},
    {"molecule": "COC1=C(OC)C(=O)C(C/C=C(\\C)CC/C=C(\\C)CC/C=C(\\C)CC/C=C(\\C)CC/C=C(\\C)CC/C=C(\\C)CC/C=C(\\C)CC/C=C(\\C)CC/C=C(\\C)CCC=C(C)C)=C(C)C1=O", "note": "[CoQ10, coenzyme Q10]", "values": [
      {"measurement": "length of neurites around DRGs compared with control DRGs", "setting": "cultured fetal rat DRGs; day 11, 0.1-50 uM, p<0.0001 for all", "result": "longer"},
      {"measurement": "mean neurite length", "setting": "cultured fetal rat DRGs; 75 uM (non-viable DRG excluded)", "result": 6.20, "unit": "mm"},
      {"measurement": "mean neurite length", "setting": "cultured fetal rat DRGs; 100 uM", "result": 6.07, "unit": "mm"},
      {"measurement": "toxicity in cultured fetal rat DRGs", "setting": "cultured fetal rat DRGs; first dose finding experiment, concentrations up to 50 uM", "result": "no evidence of toxicity"},
      {"measurement": "toxicity in cultured fetal rat DRGs", "setting": "cultured fetal rat DRGs; second experiment, 50, 75, 100 uM, up to 22 days", "result": "no evidence of toxicity"}
    ]}
  ]
}
